Columns and labels:
velvetleaf = assay: Test B pre-/postemergence herbicide test; format: in vivo, Abutilon theophrasti; details: for Velvetleaf plant response rating: postemergence, visual rating
Summary of the method: (§1)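 Pre: seeds sown, then sprayed. Post: 1–4-leaf plants (2–18 cm) sprayed at the same time. Paddy: flooded, treated at 2-leaf stage. Formulation: non-phytotoxic solvent with surfactant. Greenhouse 13–15 days; visual 0–100 score relative to controls.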

barnyardgrass [1] = assay: Test B pre-/postemergence herbicide test; format: in vivo, Echinochloa crus-galli
Summary of the method: (§2)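 Greenhouse pot assay with simultaneous preemergence (treated seed) and postemergence (2–18 cm seedlings) applications of surfactant-containing, non-phytotoxic solvent formulations. Response scored visually 13–15 days later on a 0–100 scale, 100 meaning complete control.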

[2] = test system: small flower umbrella sedge; assay: Test B flooded paddy test; format: in vivo, Cyperus difformis; details: 1000 g ai/ha, visual rating, scale 0 to 100 (0 no effect, 100 complete control), 13 to 15 days
Summary of the method: (§3)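 Greenhouse test; postemergence application to plants at 1–4 leaves (2–18 cm); paddy species at 2 leaves; evaluated visually vs controls at 13–15 days; scale 0–100 (100 = complete control).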

pigweed = assay: Test B pre-/postemergence herbicide test; format: in vivo, Amaranthus retroflexus; details: for Pigweed plant response rating: postemergence, visual rating
Summary of the method: as §1

corn = assay: Test B pre-/postemergence herbicide test; format: in vivo, Zea mays
Summary of the method: as §1

Surinam grass = assay: Test B pre-/postemergence herbicide test; format: in vivo, Urochloa decumbens; details: for Surinam Grass plant response rating: postemergence, visual rating
Summary of the method: as §1

barnyardgrass [3] = assay: Test B flooded paddy test; format: in vivo, Echinochloa crus-galli; details: 1000 g ai/ha, visual rating, scale 0 to 100 (0 no effect, 100 complete control), 13 to 15 days
Summary of the method: as §3

morningglory = assay: Test B pre-/postemergence herbicide test; format: in vivo, Ipomoea coccinea; details: for Morningglory plant response rating: postemergence, visual rating
Summary of the method: as §2

rice = assay: Test B flooded paddy test; format: in vivo, Oryza sativa; details: 1000 g ai/ha, visual rating, scale 0 to 100 (0 no effect, 100 complete control), 13 to 15 days
Summary of the method: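 Plants grow to 1- to 4-leaf stage (2–18 cm) for postemergence spraying, or to 2-leaf stage for the paddy test. Formulated compound is applied. Greenhouse holding lasts 13–15 days. Response is scored visually relative to controls, 0 no effect to 100 complete control; a dash means no result.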

large crabgrass = assay: Test B pre-/postemergence herbicide test; format: in vivo, Digitaria sanguinalis
Summary of the method: as §1

wild oat = assay: Test B postemergence herbicide test; format: in vivo, Avena fatua; details: scale 0 (no effect) to 100 (complete control); for Oat, Wild plant response rating: postemergence, visual rating
Summary of the method: (§4)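 Each value is a visual 0–100 response rating taken against controls 13 to 15 days after treatment in the greenhouse. Plants received formulated chemical postemergence at the 1- to 4-leaf stage or, in flooded paddy, at the 2-leaf stage.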

wheat = assay: Test B postemergence herbicide test; format: in vivo, Triticum aestivum; design: key to Wheat plant response rating: 0 = no effect, 100 = complete control; details: scale 0 (no effect) to 100 (complete control); for Wheat plant response rating: postemergence, visual rating
Summary of the method: as §4

cocklebur = assay: Test B pre-/postemergence herbicide test; format: in vivo, Xanthium strumarium
Summary of the method: as §2

lambsquarters = assay: Test B pre-/postemergence herbicide test; format: in vivo, Chenopodium album; details: for Lambsquarters plant response rating: postemergence, visual rating
Summary of the method: as §1

giant foxtail = assay: Test B pre-/postemergence herbicide test; format: in vivo, Setaria faberi
Summary of the method: as §1

[4] = 500 g ai/ha, visual rating 0-100, 0 no effect, 100 complete control, preemergence
[5] = 125 g ai/ha, scale 0 (no effect) to 100 (complete control)
[6] = 500 g ai/ha, scale 0 (no effect) to 100 (complete control)
[7] = preemergence, 125 g ai/ha, 0 to 100 scale, 0 is no effect, 100 is complete control
[8] = postemergence, 125 g ai/ha, visual rating, scale 0 (no effect) to 100 (complete control)
[9] = postemergence, 500 g ai/ha, visual rating, scale 0 (no effect) to 100 (complete control)
[10] = Postemergence, 500 g ai/ha, visual rating after 13 to 15 days, scale 0 (no effect) to 100 (complete control)
[11] = Preemergence, 500 g ai/ha, scale 0 to 100
[12] = Postemergence, 500 g ai/ha, visual rating after 13 to 15 days

CCn1nc(C(C)(C)C)cc1C(=O)Nc1cccc(SC(F)(F)F)c1 [Compound 130]
Plant response rating, Velvetleaf (velvetleaf; [4]): 90 | Velvetleaf plant response rating (velvetleaf; [5]): 70 | Velvetleaf plant response rating (velvetleaf; [6]): 70 | Plant response rating, Velvetleaf (velvetleaf; [7]): 10 | Plant response rating, Barnyardgrass (barnyardgrass [1]; [4]): 70 | Barnyardgrass plant response rating (barnyardgrass [1]; [8]): 50 | Barnyardgrass plant response rating (barnyardgrass [1]; [9]): 80 | Plant response rating, Barnyardgrass (barnyardgrass [1]; [7]): 10 | Sedge, Umbrella plant response rating [2]: 0 | Plant response rating, Pigweed (pigweed; [4]): 100 | Pigweed plant response rating (pigweed; [5]): 100 | Pigweed plant response rating (pigweed; [6]): 100 | Plant response rating, Pigweed (pigweed; [7]): 20 | Plant response rating, Corn (corn; [4]): 20 | Corn plant response rating (corn; [8]): 20 | Corn plant response rating (corn; [9]): 40 | Plant response rating, Corn (corn; [7]): 10 | Plant response rating, Surinam Grass (Surinam grass; [4]): 80 | Surinam Grass plant response rating (Surinam grass; [5]): 50 | Surinam Grass plant response rating (Surinam grass; [6]): 90 | Plant response rating, Surinam Grass (Surinam grass; [7]): 60 | Barnyardgrass plant response rating (barnyardgrass [3]): 40 | Plant response rating, Morningglory (morningglory; [4]): 10 | Morningglory plant response rating (morningglory; [5]): 100 | Morningglory plant response rating (morningglory; [6]): 100 | Plant response rating, Morningglory (morningglory; [7]): 10 | Rice plant response rating (rice): 0 | Plant response rating, Crabgrass, Large (large crabgrass; [4]): 100 | Crabgrass, Large plant response rating (large crabgrass; [8]): 70 | Crabgrass, Large plant response rating (large crabgrass; [9]): 90 | Plant response rating, Crabgrass, Large (large crabgrass; [7]): 90 | Oat, Wild plant response rating (wild oat; 125 g ai/ha): 40 | Oat, Wild plant response rating (wild oat; 500 g ai/ha): 60 | Wheat plant response rating (wheat; 125 g ai/ha): 20 | Wheat plant response rating (wheat; 500 g ai/ha): 40 | Plant response rating, Cocklebur (cocklebur; [4]): 0 | Cocklebur plant response rating (cocklebur; [8]): 100 | Cocklebur plant response rating (cocklebur; [9]): 100 | Plant response rating, Cocklebur (cocklebur; [7]): 0 | Plant response rating, Lambsquarters (lambsquarters; [4]): 70 | Lambsquarters plant response rating (lambsquarters; [5]): 90 | Lambsquarters plant response rating (lambsquarters; [6]): 100 | Plant response rating, Lambsquarters (lambsquarters; [7]): 0 | Plant response rating, Foxtail, Giant (giant foxtail; [4]): 70 | Foxtail, Giant plant response rating (giant foxtail; [8]): 20 | Foxtail, Giant plant response rating (giant foxtail; [9]): 60 | Plant response rating, Foxtail, Giant (giant foxtail; [7]): 20

CCn1nc(C(C)(C)C)cc1C(=O)Nc1cccc2c1CCN(C1CC1)C2=O [Compound 64]
Plant response rating, Velvetleaf (velvetleaf; [10]): 10 | Velvetleaf plant response rating (velvetleaf; [5]): 10 | Plant response rating, Velvetleaf (velvetleaf; [7]): 0 | Plant response rating, Barnyardgrass (barnyardgrass [1]; [10]): 10 | Barnyardgrass plant response rating (barnyardgrass [1]; [11]): 90 | Barnyardgrass plant response rating (barnyardgrass [1]; [8]): 10 | Plant response rating, Barnyardgrass (barnyardgrass [1]; [7]): 50 | Sedge, Umbrella plant response rating [2]: 90 | Plant response rating, Pigweed (pigweed; [10]): 50 | Pigweed plant response rating (pigweed; [5]): 20 | Plant response rating, Pigweed (pigweed; [7]): 100 | Plant response rating, Corn (corn; [10]): 20 | Corn plant response rating (corn; [11]): 0 | Corn plant response rating (corn; [8]): 10 | Plant response rating, Corn (corn; [7]): 0 | Plant response rating, Surinam Grass (Surinam grass; [10]): 10 | Surinam Grass plant response rating (Surinam grass; [5]): 10 | Plant response rating, Surinam Grass (Surinam grass; [7]): 10 | Barnyardgrass plant response rating (barnyardgrass [3]): 30 | Plant response rating, Morningglory (morningglory; [10]): 20 | Morningglory plant response rating (morningglory; [5]): 0 | Plant response rating, Morningglory (morningglory; [7]): 0 | Rice plant response rating (rice): 50 | Plant response rating, Crabgrass, Large (large crabgrass; [10]): 10 | Crabgrass, Large plant response rating (large crabgrass; [11]): 100 | Crabgrass, Large plant response rating (large crabgrass; [8]): 10 | Plant response rating, Crabgrass, Large (large crabgrass; [7]): 20 | Plant response rating, Oat, Wild (wild oat; [12]): 20 | Oat, Wild plant response rating (wild oat; 125 g ai/ha): 20 | Plant response rating, Wheat (wheat; [12]): 10 | Wheat plant response rating (wheat; 125 g ai/ha): 0 | Plant response rating, Cocklebur (cocklebur; [10]): 50 | Cocklebur plant response rating (cocklebur; [11]): 0 | Cocklebur plant response rating (cocklebur; [8]): 30 | Plant response rating, Cocklebur (cocklebur; [7]): 0 | Plant response rating, Lambsquarters (lambsquarters; [10]): 70 | Lambsquarters plant response rating (lambsquarters; [5]): 70 | Plant response rating, Lambsquarters (lambsquarters; [7]): 60 | Plant response rating, Foxtail, Giant (giant foxtail; [10]): 10 | Foxtail, Giant plant response rating (giant foxtail; [11]): 100 | Foxtail, Giant plant response rating (giant foxtail; [8]): 10 | Plant response rating, Foxtail, Giant (giant foxtail; [7]): 10
